Results published in patent US20060177430A1, “Treatment of ocular disorders with ophthalmic formulations containing methylsulfonylmethane as a transport enhancer” (Chakshu Research Inc, priority 2002, published 2006).
“And” between values parts separate entries of the source, which are not always exact repeats. Equal entries are not always repeated. Each block holds one compound with its values, some of them ahead of it.

Legend:
[1] = EDTA pharmacokinetic study: 14C-EDTA in structures of the rat eye (Example 25)
Protocol: Objectives. Determine the amount of C-14 labeled EDTA that penetrates into the various structures of the rat eye (cornea, aqueous humor, lens, vitreous, and retina), using eye drops that contain MSM. Carry out a comparison of two different eye drop formulations that differed in their EDTA concentration.
8 μl of Eye Drop 1 was applied to the rats' eyes. […] The eyeballs were quickly washed 6 times in 5 ml of saline each time. Aqueous humor was aspirated from both eyes and dispensed in 50 μl of PBS. Cornea, lens, vitreous and retina from each eye were separated and placed in Eppendorf tubes containing H2O and 10N NaOH in the following ratio:
8 μl of Eye Drop 2 was applied to the rat eye. After 0.5, 2 and 4 hours, the rats were sacrificed and the experiment conducted in the same way as for Eye Drop 1.

[2] = in the absence of MSM
in vivo = experiment: in vivo
Protocol: The ocular pharmacokinetic behavior of EDTA, when administered as a component of Formulation 1, was evaluated in rabbits over a period of five days. Two healthy male rabbits, each approximately 2.5 to 3 kg in body weight, were used for the study.
On day 1 of the study, one drop of Formulation 1 was topically instilled in each eye of both rabbits (four eyes total). No additional eye drops were administered during the course of the study. Samples of aqueous humor were extracted at 15 min, 30 min, 1 hr, 4 hrs, 3 days, and 5 days following administration (as indicated in the following table). Vitreous humor was extracted at 5 days following administration from all four eyes. The concentration of EDTA was measured in all the samples of aqueous humor and vitreous humor by HPLC analysis.
In the following in vivo experiment, the ocular pharmacokinetic behavior of EDTA, when administered with MSM as permeation enhancing penetrating agent, was evaluated in rabbits over a period of five days. Two healthy male rabbits, each approximately 2.5 to 3 Kg in body weight, were used for the study.
An eye drop formulation of the invention, was prepared as follows: High purity de-ionized (DI) water (500 ml) was filtered via a 0.2 micron filter. MSM (27 g), EDTA (13 g), and L-carnosine (5 g) were added to the filtered DI water, and mixed until visual transparency was achieved, indicating dissolution. The mixture was poured into 10 ml bottles each having a dropper cap. On a weight percent basis, the eye drops had the following composition: […]

[3] = @ 79° F.; cited from earlier work
[4] = system: Human lens epithelial cells (HLEC); experiment: Cell viability following oxidation-induced toxicity in human lens epithelial cells (Example 27); assay type: cell-based; settings: oxidants, 16 hrs; 4 mM MSM, 0.5 mM EDTA
Protocol: Materials. […] All cell culture medium components were from Invitrogen. Cell Culture and Treatment. […] Cell Viability. Cell survival was determined by Trypan Blue staining and counting with a hemocytometer. Dead cells stain blue, while live cells exclude Trypan Blue. Cell viability is represented as the number of live cells divided by the total number of cells, expressed as a percentage. [[[…]]] Experimental Procedure. 1. Seeded 0.5×10^5/ml of HLEC (Passage 5) into three 12-well plates, incubated at 37° C. for overnight. 2. […] Added the oxidation reagents and MSM and/or EDTA to the proper wells. […] Ferrous ammonium sulfate (FAS) 10 μM, ADP 100 μM, H2O2 100 μM • Fenton': FAS 10 μM, ADP 100 μM, H2O2 100 μM • Ferric Chloride: […]

rat lens organ culture = experiment: Oxidation-induced toxicity in rat lens organ culture (Example 26); assay type: cell-based; settings: 7 days
Description: Materials. […] All cell culture medium components were from Invitrogen. Animals. […] Lens Culture. The rat lenses were dissected and washed with 1% penicillin/streptomycin in sterile PBS. […] The lenses were visualized under a Nikon Eclipse 200 and photographs were taken using a Multidimensional Imaging System. [table] Experimental Procedure. 1. Sacrificed seven rats, removed the eyeballs as soon as possible, and put them into a tube containing PBS with 0.1% gentamicin. 2. Dissected the lenses immediately and washed with PBS. 3. […] Each treatment was performed in 2 wells. Final concentrations for the six treatments were as follows: […] After 7 days of lens culture, took photographs and determined level of light transparency through the lenses.

[5] = 54 mg MSM/ml
Description: (§1) The same study design and experimental setup was used as described in the above experiments.

[6] = not told
Description: as §1

[7] = 5 days after one drop of Formulation 1, per rabbit eye

amount present in the aqueous humor [2]: very little
concentration at 15 min (in vivo; male, rabbit, aqueous humor, topical, 1 drop of Formulation 1 per eye, Concentration of EDTA, aqueous humor, 15 min after one drop of Formulation 1, per rabbit eye, HPLC): 1.3 µg/mL
concentration at 30 min (in vivo; male, rabbit, aqueous humor, topical, 1 drop of Formulation 1 per eye, Concentration of EDTA, aqueous humor, 30 min after one drop of Formulation 1, per rabbit eye): 10.7 µg/mL
concentration at 1 hr (in vivo; male, rabbit, aqueous humor, topical, 1 drop of Formulation 1 per eye, Concentration of EDTA, aqueous humor, 1 hr after one drop of Formulation 1, per rabbit eye): 5.3 µg/mL
concentration at 4 hrs (in vivo; male, rabbit, aqueous humor, topical, 1 drop of Formulation 1 per eye, Concentration of EDTA, aqueous humor, 4 hrs after one drop of Formulation 1, per rabbit eye): 0.9 µg/mL
concentration at 3 days (in vivo; male, rabbit, aqueous humor, topical, 1 drop of Formulation 1 per eye, Concentration of EDTA, aqueous humor, 3 days after one drop of Formulation 1, per rabbit eye): 0.5 µg/mL
concentration at 5 days (in vivo; male, rabbit, aqueous humor, topical, 1 drop of Formulation 1 per eye, Concentration of EDTA, aqueous humor, 5 days after one drop of Formulation 1, per rabbit eye): 0.6 µg/mL
concentration at 30 min (in vivo; male, rabbit, aqueous humor, topical, 1 drop of Formulation 1 per eye, concentration of EDTA in aqueous humor, 30 minutes following administration of Formulation 1): 10.7 µg/mL
concentration at 5 days (in vivo; male, rabbit, vitreous humor, topical, 1 drop of Formulation 1 per eye, Concentration of EDTA, vitreous humor, 5 days after one drop of Formulation 1, per rabbit eye): 0.6 µg/mL
SMILES: O=C(O)CN(CCN(CC(=O)O)CC(=O)O)CC(=O)O [EDTA, ethylenediamine tetraacetic acid]
dose dependency of nanograms of EDTA in eye structures ([1]; Eye Drop 1 (60.5 mM EDTA) versus Eye Drop 2 (12.5 mM EDTA)): Dose dependency was observed, particularly in the aqueous humor, the cornea, and the lens
distribution among eye structures ([1]; Eye Drop 1, two-hour time point): The majority of the EDTA was found in the aqueous humor
Concentration of EDTA, aqueous humor (in vivo; 3 days after one drop of Formulation 1, per rabbit eye): 0.4 micrograms per milliliter and 0.7 micrograms per milliliter
Concentration of EDTA, aqueous humor (in vivo; [7]): 0.5 micrograms per milliliter and 0.4 micrograms per milliliter
Concentration of EDTA, vitreous humor (in vivo; [7]): 0.5 micrograms per milliliter and 0.7 micrograms per milliliter

SMILES: CS(C)(=O)=O [MSM, methylsulfonylmethane]
water solubility [3]: 34 % w/v
percent cell viability (Trypan Blue) [4]: increased the percent cell viability for all oxidants
Light transmission through the lens, of control (rat lens organ culture; 1 mM ascorbate + 100 μM hydrogen peroxide, oxidant alone 32%, 4 mM MSM, 0.5 mM EDTA): 57%
Light transmission through the lens, of untreated control (rat lens organ culture; 50 mM glucose, glucose alone 45%, 4 mM MSM, 0.5 mM EDTA): 68%
lens opacification in photographs of the lens culture (rat lens organ culture; glucose or ascorbate plus hydrogen peroxide): mitigated lens opacification by both oxidants

effect of MSM on the diffusion rate [5]: no effect
SMILES: N[C@@H](CCC(=O)N[C@@H](CS)C(=O)NCC(=O)O)C(=O)O [glutathione]

increase of permeation over control [6]: about 2.5%
SMILES: NCCC(=O)N[C@@H](Cc1cnc[nH]1)C(=O)O [L-carnosine]
